Results reported in US12234238B2, “Antimicrobial compounds and methods of making and using the same” (BIOVERSYS AG, priority 2017, dated 2025).

Legend:
[1] = tested on: Staphylococcus aureus (S. aureus) 11540 strain; test: standard microdilution assay to determine minimum inhibitory concentrations (MICs), S. aureus; assay type: cell-based
Procedure: (§1) The in vitro activity of the compounds of the present disclosure can be determined. Antimicrobial testing is typically performed to determine the minimum inhibitory concentration (MIC). Minimum inhibitory concentrations (MICs) are determined by the microdilution method in a final volume of 100 μl according to protocols outlined by The Clinical and Laboratory Standards Institute (CLSI). Performance standards for reference strains are assessed within the same experimental design to maintain quality control. See, for example, Clinical Laboratory Standards Institute: Methods for dilution antimicrobial susceptibility tests for bacteria that grow aerobically M7-A8. Approved Standard-Eighth Edition. Wayne, PA: CLSI; December 2008: and Clinical Laboratory Standards Institute: Performance Standards for Antimicrobial Susceptibility Testing M100-S20; Approved Standard-Twentieth Edition. Wayne, PA: CLSI; June 2010. The compounds of the present disclosure were tested for antimicrobial activity. The Compounds 1-122 were run against Eschericia coli (E. coli) strain ATCC25922 and against Staphylococcus aureus (S. aureus) 11540 strain using a standard microdilution assay to determine minimum inhibitory concentrations (MICs). […] It will be recognized by one skilled in the art that the compounds can be assessed against other bacterial organisms and that the presentation of data for activity against Eschericia coli and Staphylococcus aureus are illustrative and in no way is intended to limit the scope of the present disclosure. The compounds of the present disclosure can be assayed against a range of other microorganisms depending upon the performance activity desired to be gathered. Furthermore, the “+” and “−” representation and the selection of a cutoff value of 16 micrograms/mL is also illustrative and in no way is intended to limit the scope of the present disclosure.

[2] = tested on: Eschericia coli (E. coli) strain ATCC25922; test: standard microdilution assay to determine minimum inhibitory concentrations (MICs), E. coli; assay type: cell-based; details: Escherichia coli
Procedure: as §1

Row | MIC [1] | MIC [2] | SMILES
1 | ≤ 16 µg/mL | ≤ 16 µg/mL | C[C@@H](O)CNCc1cc(Cl)c(F)c(-c2cc3cn(-c4ccc([C@@H]5CCC[C@@H](CCSC(=N)N)N5)cc4)c(=O)nc3[nH]2)c1 [Compound 38]
2 | ≤ 16 µg/mL | ≤ 16 µg/mL | COc1ccc(OC[C@H](N)CCCc2cc(Cl)c(F)c(-c3cc4cn(-c5ccc([C@@H]6CCC[C@@H](CCSC(=N)N)N6)cc5)c(=O)nc4[nH]3)c2)cc1 [Compound 39]
3 | ≤ 16 µg/mL | ≤ 16 µg/mL | C[C@H](N)CCCN1CCC=C(c2cc3cn(-c4ccc([C@@H]5CCC[C@@H](CCSC(=N)N)N5)cc4)c(=O)nc3[nH]2)C1 [Compound 73]
4 | ≤ 16 µg/mL | ≤ 16 µg/mL | CCc1cc(CCC[C@H](C)N)cc(-c2cc3cn(-c4ccc([C@@H]5CCC[C@@H](CCSC(=N)N)N5)cc4)c(=O)nc3[nH]2)c1 [Compound 87]
5 | ≤ 16 µg/mL | ≤ 16 µg/mL | C[C@H](N)CCCc1cc(Cl)c(F)c(-c2cc3cn(-c4ccc([C@@H]5CCC[C@@H](CCSC(=N)N)N5CCC5CC5)cc4)c(=O)nc3[nH]2)c1 [Compound 103]
6 | ≤ 16 µg/mL | ≤ 16 µg/mL | CCCN1[C@H](CCSC(=N)N)CCC[C@H]1c1ccc(-n2cc3cc(-c4cc(CCC[C@H](C)N)cc(Cl)c4F)[nH]c3nc2=O)cc1 [Compound 56]
7 | ≤ 16 µg/mL | ≤ 16 µg/mL | C[C@@H](N)CCCN1CC(F)(F)CC1c1cc2cn(-c3ccc([C@@H]4CCC[C@@H](CCSC(=N)N)N4)cc3)c(=O)nc2[nH]1 (stereo partly shown) [Compound 71]
8 | ≤ 16 µg/mL | ≤ 16 µg/mL | C[C@H](N)CCCc1cc(Cl)c(F)c(-c2cc3cn(-c4ccc([C@@H]5CCC[C@@H](CCSC(=N)N(C)C)N5)cc4)c(=O)nc3[nH]2)c1 [Compound 44]
9 | ≤ 16 µg/mL | ≤ 16 µg/mL | N=C(N)SCC[C@@H]1CCC[C@@H](c2ccc(-n3cc4cc(-c5cc(CCC[C@@H](N)C6CC6)cc(Cl)c5F)[nH]c4nc3=O)cc2)N1 [Compound 1]
10 | ≤ 16 µg/mL | ≤ 16 µg/mL | C[C@@H](N)CCCN1C[C@H](OCc2ccccc2)CC1c1cc2cn(-c3ccc([C@@H]4CCC[C@@H](CCSC(=N)N)N4)cc3)c(=O)nc2[nH]1 (stereo partly shown) [Compound 63]
11 | ≤ 16 µg/mL | ≤ 16 µg/mL | C[C@@H](N)CCCN1C[C@H](Cc2ccccc2)CC1c1cc2cn(-c3ccc([C@@H]4CCC[C@@H](CCSC(=N)N)N4)cc3)c(=O)nc2[nH]1 (stereo partly shown) [Compound 76]
12 | ≤ 16 µg/mL | ≤ 16 µg/mL | CSCCN1[C@H](CCSC(=N)N)CCC[C@H]1c1ccc(-n2cc3cc(-c4cc(CCC[C@H](C)N)cc(Cl)c4F)[nH]c3nc2=O)cc1 [Compound 91]
13 | ≤ 16 µg/mL | ≤ 16 µg/mL | C[C@H](N)CCCN1CCCC1c1cc2cn(-c3ccc([C@@H]4CCC[C@@H](CCSC(=N)N)N4)cc3)c(=O)nc2[nH]1 (stereo partly shown) [Compound 31]
14 | ≤ 16 µg/mL | ≤ 16 µg/mL | C[C@H](N)CCCc1cc(Cl)c(F)c(-c2cc3cn(-c4ccc([C@@H]5CCC[C@@H](CCSC6=NCCN6)N5)cc4)c(=O)nc3[nH]2)c1 [Compound 2]
15 | ≤ 16 µg/mL | ≤ 16 µg/mL | C[C@H](NCCCSC(=N)N)c1ccc(-n2cc3cc(-c4cc(CCC[C@@H](N)C5CC5)cc(Cl)c4F)[nH]c3nc2=O)cc1 [Compound 27]
16 | ≤ 16 µg/mL | ≤ 16 µg/mL | C[C@H]1CC(c2cc3cn(-c4ccc([C@@H]5CCC[C@@H](CCSC(=N)N)N5)cc4)c(=O)nc3[nH]2)N(CCC[C@@H](C)N)C1 (stereo partly shown) [Compound 67]
17 | ≤ 16 µg/mL | ≤ 16 µg/mL | CSC(=N)NCC[C@@H]1CCC[C@@H](c2ccc(-n3cc4cc(-c5cc(CCC[C@H](C)N)cc(Cl)c5F)[nH]c4nc3=O)cc2)N1 [Compound 120]
18 | ≤ 16 µg/mL | ≤ 16 µg/mL | CCSC(=N)NCC[C@@H]1CCC[C@@H](c2ccc(-n3cc4cc(-c5cc(CCC[C@H](C)N)cc(Cl)c5F)[nH]c4nc3=O)cc2)N1 [Compound 118]
19 | ≤ 16 µg/mL | ≤ 16 µg/mL | CO[C@@H]1CC(c2cc3cn(-c4ccc([C@@H]5CCC[C@@H](CCSC(=N)N)N5)cc4)c(=O)nc3[nH]2)N(CCC[C@H](C)N)C1 (stereo partly shown) [Compound 57]
20 | ≤ 16 µg/mL | ≤ 16 µg/mL | C[C@H](N)CCCc1cc(Cl)c(F)c(-c2cc3cn(-c4ccc([C@H](C)NCCCSC(=N)N)cc4)c(=O)nc3[nH]2)c1 [Compound 9]
21 | ≤ 16 µg/mL | ≤ 16 µg/mL | N=C(N)SCC[C@@H]1CCC[C@@H](c2ccc(-n3cc4cc(-c5cc(CCC[C@@H](N)COc6ccccc6)cc(Cl)c5F)[nH]c4nc3=O)cc2)N1 [Compound 35]
22 | ≤ 16 µg/mL | ≤ 16 µg/mL | C[C@H](N)CCCc1cc(Cl)c(F)c(-c2cc3cn(-c4ccc([C@@H]5CC=C[C@@H](CCSC(=N)N)N5)cc4)c(=O)nc3[nH]2)c1 [Compound 16]

Row | MIC [1] | MIC [2] | SMILES
23 | ≤ 16 µg/mL | ≤ 16 µg/mL | C[C@H](N)CCCc1cc(Cl)c(F)c(-c2cc3cn(-c4ccc([C@@H]5CCCCN5CCCSC(=N)N)cc4)c(=O)nc3[nH]2)c1 [Compound 12]
24 | ≤ 16 µg/mL | ≤ 16 µg/mL | C[C@H](N)CCCc1cc(-c2cc3cn(-c4ccc([C@@H]5CCC[C@@H](CCSC(=N)N)N5)cc4)c(=O)nc3[nH]2)cc(C(C)(C)C)c1 [Compound 86]
25 | ≤ 16 µg/mL | ≤ 16 µg/mL | C[C@H](N)CCCc1cc(-c2cc3cn(-c4ccc([C@@H]5CCC[C@@H](CCSC(=N)N)N5)cc4)c(=O)nc3[nH]2)cc(C2CC2)c1 [Compound 99]
26 | ≤ 16 µg/mL | ≤ 16 µg/mL | C=CCN1[C@H](CCSC(=N)N)CCC[C@H]1c1ccc(-n2cc3cc(-c4cc(CCC[C@H](C)N)cc(Cl)c4F)[nH]c3nc2=O)cc1 [Compound 46]
27 | ≤ 16 µg/mL | ≤ 16 µg/mL | N=C(N)SCC[C@@H]1CCC[C@@H](c2ccc(-n3cc4cc(C5C[C@@H](OCc6ccccc6)CN5)[nH]c4nc3=O)cc2)N1 (stereo partly shown) [Compound 49]
28 | ≤ 16 µg/mL | ≤ 16 µg/mL | C[C@H](N)CCCN1CCCCC1c1cc2cn(-c3ccc([C@@H]4CCC[C@@H](CCSC(=N)N)N4)cc3)c(=O)nc2[nH]1 (stereo partly shown) [Compound 33]
29 | ≤ 16 µg/mL | ≤ 16 µg/mL | C[C@H](O)CNCc1cc(Cl)c(F)c(-c2cc3cn(-c4ccc([C@@H]5CCC[C@@H](CCSC(=N)N)N5)cc4)c(=O)nc3[nH]2)c1 [Compound 30]
30 | ≤ 16 µg/mL | ≤ 16 µg/mL | C[C@H](N)CCCc1cc(Cl)c(F)c(-c2cc3cn(-c4ccc([C@@H]5CCC=C[C@@H](CCSC(=N)N)N5)cc4)c(=O)nc3[nH]2)c1 [Compound 59]
31 | ≤ 16 µg/mL | ≤ 16 µg/mL | C[C@@H]1CNC(c2cc3cn(-c4ccc([C@@H]5CCC[C@@H](CCSC(=N)N)N5)cc4)c(=O)nc3[nH]2)C1 (stereo partly shown) [Compound 61]
32 | ≤ 16 µg/mL | ≤ 16 µg/mL | C[C@@H](CO)CN1[C@H](CCSC(=N)N)CCC[C@H]1c1ccc(-n2cc3cc(-c4cc(CCC[C@H](C)N)cc(Cl)c4F)[nH]c3nc2=O)cc1 [Compound 101]
33 | ≤ 16 µg/mL | ≤ 16 µg/mL | CC(Br)CCN1[C@H](CCSC(=N)N)CCC[C@H]1c1ccc(-n2cc3cc(-c4cc(CCC[C@H](C)N)cc(Cl)c4F)[nH]c3nc2=O)cc1 (stereo partly shown) [Compound 95]
34 | ≤ 16 µg/mL | ≤ 16 µg/mL | N=C(N)SCCCN1CCCC[C@H]1c1ccc(-n2cc3cc(-c4cc(CCC[C@@H](N)C5CC5)cc(Cl)c4F)[nH]c3nc2=O)cc1 [Compound 13]
35 | ≤ 16 µg/mL | ≤ 16 µg/mL | C[C@@H](N)CCCN1C[C@H](F)CC1c1cc2cn(-c3ccc([C@@H]4CCC[C@@H](CCSC(=N)N)N4)cc3)c(=O)nc2[nH]1 (stereo partly shown) [Compound 69]
36 | ≤ 16 µg/mL | ≤ 16 µg/mL | COC(=O)CN1[C@H](CCSC(=N)N)CCC[C@H]1c1ccc(-n2cc3cc(-c4cc(CCC[C@H](C)N)cc(Cl)c4F)[nH]c3nc2=O)cc1 [Compound 96]
37 | ≤ 16 µg/mL | ≤ 16 µg/mL | CC(C)CN1[C@H](CCSC(=N)N)CCC[C@H]1c1ccc(-n2cc3cc(-c4cc(CCC[C@H](C)N)cc(Cl)c4F)[nH]c3nc2=O)cc1 [Compound 90]
38 | ≤ 16 µg/mL | ≤ 16 µg/mL | C[C@H](N)CCCc1cc(Cl)c(F)c(-c2cc3cn(-c4ccc([C@@H]5CCC[C@@H](CCSC(=N)N)N5CCC5CCOCC5)cc4)c(=O)nc3[nH]2)c1 [Compound 102]
39 | ≤ 16 µg/mL | ≤ 16 µg/mL | N=C(N)SCC[C@@H]1CCC[C@@H](c2ccc(-n3cc4cc(-c5cc(CCC[C@@H](N)CO)cc(Cl)c5F)[nH]c4nc3=O)cc2F)N1 [Compound 22]
40 | ≤ 16 µg/mL | ≤ 16 µg/mL | N=C(N)SCC[C@@H]1CCC[C@@H](c2ccc(-n3cc4cc(C5C[C@H]6CCCC[C@@H]6N5)[nH]c4nc3=O)cc2)N1 (stereo partly shown) [Compound 51]
41 | ≤ 16 µg/mL | ≤ 16 µg/mL | N=C(N)SCCCN1[C@H](CCSC(=N)N)CCC[C@H]1c1ccc(-n2cc3cc(-c4cc(CCC[C@@H](N)C5CC5)cc(Cl)c4F)[nH]c3nc2=O)cc1 [Compound 20]
42 | ≤ 16 µg/mL | > 16 µg/mL | C[C@H](N)CCCc1cc(Cl)c(F)c(-c2cc3cn(-c4ccc([C@H]5C[C@H](CCSC(=N)N)C(=O)N5C)cc4)c(=O)nc3[nH]2)c1 [Compound 115]
43 | ≤ 16 µg/mL | ≤ 16 µg/mL | Cc1ccccc1OC[C@H](N)CCCc1cc(Cl)c(F)c(-c2cc3cn(-c4ccc([C@@H]5CCC[C@@H](CCSC(=N)N)N5)cc4)c(=O)nc3[nH]2)c1 [Compound 40]
44 | ≤ 16 µg/mL | ≤ 16 µg/mL | C[C@H](N)CCO[C@H]1CNC(c2cc3cn(-c4ccc([C@@H]5CCC[C@@H](CCSC(=N)N)N5)cc4)c(=O)nc3[nH]2)C1 (stereo partly shown) [Compound 47]
